# In patent publication US12692251B2, “Pralsetinib pharmaceutical compositions” (Rigel Pharmaceuticals, Inc., priority 2020, dated 2026):
# Tests used:
# [1] = Dynamic Vapor Sorption (DVS); format: physicochemical; conditions: for total mass change by DVS: between 2% and 95% relative humidity
# Description: Dynamic Vapor Sorption (DVS) was done using a DVS Intrinsic 1. The sample is loaded into a sample pan and suspended from a microbalance. A typical sample mass for DVS measurement is 25 mg. Nitrogen gas bubbled through distilled water provides the desired relative humidity. A typical measurement comprises the steps: • 1—Equilibrate at 50% RH • 2—50% to 2%. (50%, 40%, 30%, 20%, 10% and 2%) • a. Hold minimum of 5 mins and maximum of 60 minutes at each humidity. The pass criteria is less than 0.002% change • 3 —2% to 95% (2%, 10%, 20%, 30%, 40%, 50%, 60%, 70%, 80%, 90%, 95%) • a. Hold minimum of 5 mins and maximum of 60 minutes at each humidity. The pass criteria is less than 0.002% change • 4—95% to 2% (95%, 80%, 70%, 60%, 50%, 40%, 30%, 20%, 10%, 2%) • a. Hold minimum of 5 mins and maximum of 60 minutes at each humidity. The pass criteria is less than 0.002% change • 5—2% to 50% (2%, 10%, 20%, 30%, 40%, 50%) • a. Hold minimum of 5 mins and maximum of 60 minutes at each humidity. The pass criteria is less than 0.002% change
# [2] = Solubility of pralsetinib and its solid forms; format: physicochemical; conditions: for solubility in simulated gastric fluid: simulated gastric fluid (possibly due to conversion to HCl salt)
# [3] = Competitive slurry experiments; format: physicochemical
# [4] = Solid form stability to humidity and drying; format: physicochemical; conditions: for stability to drying: 50° C. (under vacuum) where stated
# Description: In one aspect, the present disclosure provides a process for preparing crystalline Form A, Form B or Form C. In a particular aspect, Form A can be obtained by slurrying in alcohols, acetone, and acetonitrile or Form A was prepared by evaporative crystallization in multiple solvents and cooling crystallization in isopropanol and 1-propanol. Form A can also be produced by recrystallization in acetone:water. Form C can be obtained by recrystallizing Compound (I) in various water containing solvent systems (acetone:water, methanol:water, isopropanol:water, dimethylacetamide:water, tetrahydrofuran:water). Form C was stable drying at 50° C. under vacuum, and converted to Form B (anhydrous) upon heating to 150° C. […] Form C was not as hygroscopic as Form A during the dynamic vapor sorption measurements, gaining only 1.44% water.
# [5] = tested on: NSCLC and thyroid cancer xenografts driven by various RET mutations and fusions; conditions: in vivo; cited from earlier work
# [6] = Accelerated stability for 4 weeks at 40° C./75% RH; format: physicochemical; conditions: Compositions 1-3
# Description: The manufacturing process for the Compositions 1-3 are as follows: • 1) Intragranular components were blended in a suitably sized contained using the Turbula blender for 3 minutes at 23 rpm • 2) Intragranular blend was dry granulated by densification using a Riva minipress fitted with 22×9 mm caplet tooling • 3) Resultant material was milled using a Comil 193 fitted with 991 μm screen 4) Granule bulk density was determined and if not within 0.55-0.6 g/mL, densification and milling repeated until the desired bulk density was achieved • 5) Extragranular components were blend with the granules in a Turbula blender for 2 minutes at 23 rpm • 6) Final blend was hand filled in to Size 0 HPMC Capsules (Vcaps® Plus) • 7) Capsules were packed into 60 mL HDPE bottles with 4 g desiccant cap at a count of 30 capsules per bottle • 8) Packed product was placed on accelerated stability for 4 weeks at 40° C./75% RH
# [7] = tested on: VEGFR2; conditions: in vivo; cited from earlier work
smiles,measurement,setting,value
"CO[C@]1(C(=O)N[C@@H](C)c2ccc(-n3cc(F)cn3)nc2)CC[C@H](c2nc(C)cc(Nc3cc(C)[nH]n3)n2)CC1 [Form A, (cis)-N—((S)-1-(6-(4-fluoro-1H-pyrazol-1-yl)pyridin-3-yl)ethyl)-1-methoxy-4-(4 methyl-6-(5-methyl-1H-pyrazol-3-ylamino)pyrimidin-2-yl)cyclohexanecarboxamide]",reversible mass change by DVS,[1]; between 2-95% relative humidity,about 10%
same,solubility in simulated gastric fluid,[2],high solubility
same,solubility in simulated intestinal fluid,[2],low solubility
same,solubility in water,[2],low solubility
same,"form conversion in competitive slurry, methanol:water",[3]; methanol:water at high ratios of water to methanol and lower temperatures,converted to Form C
same,conversion on prolonged humidity exposure,[4]; prolonged humidity exposure,did not convert to Form C
"CO[C@]1(C(=O)N[C@@H](C)c2ccc(-n3cc(F)cn3)nc2)CC[C@H](c2nc(C)cc(Nc3cc(C)[nH]n3)n2)CC1 [Form B, (cis)-N—((S)-1-(6-(4-fluoro-1H-pyrazol-1-yl)pyridin-3-yl)ethyl)-1-methoxy-4-(4 methyl-6-(5-methyl-1H-pyrazol-3-ylamino)pyrimidin-2-yl)cyclohexanecarboxamide]",total mass change by DVS,[1],1.4 wt. %
"CO[C@]1(C(=O)N[C@@H](C)c2ccc(-n3cc(F)cn3)nc2)CC[C@H](c2nc(C)cc(Nc3cc(C)[nH]n3)n2)CC1 [Form C, (cis)-N—((S)-1-(6-(4-fluoro-1H-pyrazol-1-yl)pyridin-3-yl)ethyl)-1-methoxy-4-(4 methyl-6-(5-methyl-1H-pyrazol-3-ylamino)pyrimidin-2-yl)cyclohexanecarboxamide]",water gained during dynamic vapor sorption measurements,[1],1.44%
same,total mass change by DVS,[1],1.4 wt. %
same,solubility in simulated gastric fluid,[2],high solubility
same,solubility in simulated intestinal fluid,[2],lower solubility than Form A
same,solubility in water,[2],lower solubility than Form A
same,"form conversion in competitive slurry, acetone and isopropanol",[3]; acetone and isopropanol,converted to Form A
same,stability by X-ray powder diffraction during humidity testing,"[4]; 75% relative humidity and 40° C. for one week, and cycling down to 2% relative humidity by DVS",remained stable
COC1(C(=O)NC(C)c2ccc(-n3cc(F)cn3)nc2)CCC(c2nc(C)cc(Nc3cc(C)[nH]n3)n2)CC1.Cl (centres unmarked) [Form III],behaviour at elevated humidity / humidification,[4],stable to humidification
CO[C@]1(C(=O)N[C@@H](C)c2ccc(-n3cc(F)cn3)nc2)CC[C@H](c2nc(C)cc(Nc3cc(C)[nH]n3)n2)CC1.Cl [Form II],stability to drying,[4],converted to Form III
COC1(C(=O)NC(C)c2ccc(-n3cc(F)cn3)nc2)CCC(c2nc(C)cc(Nc3cc(C)[nH]n3)n2)CC1.Cl (centres unmarked) [Form I],stability to drying,[4],stable to drying
same,behaviour at elevated humidity / humidification,[4],deliquesced
"CO[C@]1(C(=O)N[C@@H](C)c2ccc(-n3cc(F)cn3)nc2)CC[C@H](c2nc(C)cc(Nc3cc(C)[nH]n3)n2)CC1 [pralsetinib, (cis)-N—((S)-1-(6-(4-fluoro-1H-pyrazol-1-yl)pyridin-3-yl)ethyl)-1-methoxy-4-(4 methyl-6-(5-methyl-1H-pyrazol-3-ylamino)pyrimidin-2-yl)cyclohexanecarboxamide]",growth of xenografts,[5],potently inhibits growth
same,aqueous solubility,[2],low aqueous solubility
same,solubility in acidic pH,[2]; acidic pH (pH 1.2 medium),relatively high solubility
same,physical form by XRPD after storage,[6],remains as an amorphous solid dispersion
same,inhibition of VEGFR2,[7],without inhibiting
